Laboratory results taken from patent US20240252488A1 (KOREA RESEARCH INSTITUTE OF CHEMICAL TECHNOLOGY, priority 2020, published 2024).
pKd: −log10 of the molar value.

Key:
MLKL [1] = target: T1, MLKL (Homo sapiens, UniProt Q8NB16); assay: Measurement of binding affinity with MLKL receptor (competitive binding assay, Kd); design: made in house; host or cells: HEK 293 cell line (T7 phage in E. coli BL21-derived host is also described)
T1 sequence (Q8NB16 1-471): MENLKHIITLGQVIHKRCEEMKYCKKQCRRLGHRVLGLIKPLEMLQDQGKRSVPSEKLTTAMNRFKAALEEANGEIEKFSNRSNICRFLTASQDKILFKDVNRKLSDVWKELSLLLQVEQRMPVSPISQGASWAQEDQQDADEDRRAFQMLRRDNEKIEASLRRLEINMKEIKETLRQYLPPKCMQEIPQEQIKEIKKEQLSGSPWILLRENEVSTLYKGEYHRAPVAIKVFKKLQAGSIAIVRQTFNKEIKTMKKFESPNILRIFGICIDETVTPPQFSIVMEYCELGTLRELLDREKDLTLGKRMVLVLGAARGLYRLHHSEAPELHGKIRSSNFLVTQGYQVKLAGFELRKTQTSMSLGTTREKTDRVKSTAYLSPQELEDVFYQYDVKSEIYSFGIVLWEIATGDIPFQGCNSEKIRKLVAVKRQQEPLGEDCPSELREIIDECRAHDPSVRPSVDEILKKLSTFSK
Procedure, shortened: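 qPCR of MLKL eluted from liganded beads served as the read-out, from which Kd was derived. The protein was made in HEK 293 cells with a DNA tag, and test compounds competed with the bead-bound ligand at 0.9% final DMSO.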

FADD−/− Jurkat cells = assay: Necroptosis inhibition assay, TNF-α-induced necroptosis (CellTiter-Glo 2.0); type: cell-based, human; conditions: TNF-α 15 ng/mL; for Necroptosis inhibition assay (Rescue %) 1 μM: compound 1 μM; for Necroptosis inhibition assay (Rescue %) 10 μM: compound 10 μM
Procedure, shortened: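 Cmpd 0.1/1/10 μM final, 30 min RT preincubation; TNF-α 15 ng/mL final; 20–24 h, 37° C, 5% CO2. Readout: ATP luminescence (reagent 1:3 in PBS), 0.5 s/well. Cytotoxicity and % necroptosis inhibition calculated from signal.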

MLKL [2] = target: T1, MLKL; assay: MLKL degradation assay in HepG2 cell line (western blot); type: cell-based; design: endogenous in cells; host or cells: HepG2 or HaCaT; conditions: cell line not given; for Degradation assay (Degradation %) 1 μM: compound 1 μM; for Degradation assay (Degradation %) 10 μM: compound 10 μM
Procedure, shortened: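 HepG2, cpd final 1 or 10 μM, 20-24 h, 37 °C/5% CO2; RIPA lysis, BCA-normalized, 10-15 μg/lane SDS-PAGE, western blot, ECL read-out.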

Row | SMILES | pKd (MLKL [1]) | Necroptosis inhibition assay (Rescue %) 1 μM (FADD−/− Jurkat cells; FADD−/− Jurkat cells) [%] | Necroptosis inhibition assay (Rescue %) 10 μM (FADD−/− Jurkat cells; FADD−/− Jurkat cells) [%] | Degradation assay (Degradation %) 1 μM (MLKL [2]) [%] | Degradation assay (Degradation %) 10 μM (MLKL [2]) [%] | Necroptosis inhibition assay (Rescue %) 1 μM (FADD−/− Jurkat cells) [%] | Necroptosis inhibition assay (Rescue %) 10 μM (FADD−/− Jurkat cells) [%]
1 | Nc1ncc(-c2cnn(C3CCN(CCOC4CCN(C(=O)C5CN(C6=CC(=O)N(C7CCC(=O)NC7=O)C6=O)C5)CC4)CC3)c2)nc1C(=O)O[C@@H](C(=O)Nc1ccc(F)cc1)c1ccccc1 (stereo partly drawn) [TDH-541, (R)-2-((4-fluorophenyl)amino)-2-oxo-1-phenylethyl 3-amino-6-(1-(1-(2-((1-(1-(1-(2,6-dioxopiperidin-3-yl)-2,5-dioxo-2,5-dihydro-1H-pyrrol-3-yl)azetidine-3-carbonyl)piperidin-4-yl)oxy)ethyl)piperidin-4-yl)-1H-pyrazol-4-yl)pyrazine-2-carboxylate] | 9.47 | 24.95 | 24.58 | 78.24 | 69.17 |  | 
2 | Nc1ncc(-c2cnn(C3CCN(C[C@H]4CC[C@H](CNc5ccc6c(c5)C(=O)N(C5CCC(=O)NC5=O)C6=O)CC4)CC3)c2)nc1C(=O)O[C@@H](C(=O)Nc1ccc(F)cc1)c1ccccc1 (stereo partly drawn) [TDH-352, (R)-2-((4-fluorophenyl)amino)-2-oxo-1-phenylethyl 3-amino-6-(1-(1-(((1r,4r)-4-(((2-(2,6-dioxopiperidin-3-yl)-1,3-dioxoisoindolin-5-yl)amino)methyl)cyclohexyl)methyl)piperidin-4-yl)-1H-pyrazol-4-yl)pyrazine-2-carboxylate] | 8.27 |  |  | 50.93 | 42.16 | 11.36 | 5.3
3 | Nc1ncc(-c2cnn(C3CCN(CCCC4CCN(C(=O)CCc5ccc6c(c5)C(=O)N(C5CCC(=O)NC5=O)C6=O)CC4)CC3)c2)nc1C(=O)O[C@@H](C(=O)Nc1ccc(F)cc1)c1ccccc1 (stereo partly drawn) [TDH-484, (R)-2-((4-fluorophenyl)amino)-2-oxo-1-phenylethyl 3-amino-6-(1-(1-(3-(1-(3-(2-(2,6-dioxopiperidin-3-yl)-1,3-dioxoisoindolin-5-yl)propanoyl)piperidin-4-yl)propyl)piperidin-4-yl)-1H-pyrazol-4-yl)pyrazine-2-carboxylate] | 9.04 | 66.68 | 37.9 | 89.17 | 91.3 |  | 
4 | Nc1ncc(-c2cnn(C3CCN(C(=O)CC4CCN(c5ccc6c(c5)C(=O)N(C5CCC(=O)NC5=O)C6=O)CC4)CC3)c2)nc1C(=O)O[C@@H](C(=O)Nc1ccc(F)cc1)c1ccccc1 (stereo partly drawn) [TDH-344, (R)-2-((4-fluorophenyl)amino)-2-oxo-1-phenylethyl 3-amino-6-(1-(1-(2-(1-(2-(2,6-dioxopiperidin-3-yl)-1,3-dioxoisoindolin-5-yl)piperidin-4-yl)acetyl)piperidin-4-yl)-1H-pyrazol-4-yl)pyrazine-2-carboxylate] | 7.89 |  |  | 64.15 | 47.75 | 14.48 | 17.63
5 | Nc1ncc(-c2cnn(C3CCN(CCCN4CCN(c5ccc6c(c5)C(=O)N(C5CCC(=O)NC5=O)C6=O)CC4)CC3)c2)nc1C(=O)OC(C(=O)Nc1ccc(F)cc1)c1ccccc1 (stereo not drawn) [TDH-246, 2-((4-fluorophenyl)amino)-2-oxo-1-phenylethyl 3-amino-6-(1-(1-(3-(4-(2-(2,6-dioxopiperidin-3-yl)-1,3-dioxoisoindolin-5-yl)piperazin-1-yl)propyl)piperidin-4-yl)-1H-pyrazol-4-yl)pyrazine-2-carboxylate] | 8.48 |  |  | 66.35 | 46.78 | 60.97 | 26.97
6 | Nc1ncc(-c2cnn(C3CCN(CCOC4CCN(C(=O)COc5ccc6c(c5)C(=O)N(C5CCC(=O)NC5=O)C6=O)CC4)CC3)c2)nc1C(=O)OC(C(=O)Nc1ccc(F)cc1)c1ccccc1 (stereo not drawn) [TDH-252, 2-((4-fluorophenyl)amino)-2-oxo-1-phenylethyl 3-amino-6-(1-(1-(2-((1-(2-((2-(2,6-dioxopiperidin-3-yl)-1,3-dioxoisoindolin-5-yl)oxy)acetyl)piperidin-4-yl)oxy)ethyl)piperidin-4-yl)-1H-pyrazol-4-yl)pyrazine-2-carboxylate] | 8.41 |  |  | 76.56 | 84.2 | 124.11 | 73.38
7 | Cc1cccc(NC(=O)[C@H](OC(=O)c2nc(-c3cnn(C4CCN(CCCN5CCN(C(=O)COc6ccc7c(c6)C(=O)N(C6CCC(=O)NC6=O)C7=O)CC5)CC4)c3)cnc2N)c2ccccc2)c1 (stereo partly drawn) [TDH-487, (R)-2-oxo-1-phenyl-2-(m-tolylamino)ethyl 3-amino-6-(1-(1-(3-(4-(2-((2-(2,6-dioxopiperidin-3-yl)-1,3-dioxoisoindolin-5-yl)oxy)acetyl)piperazin-1-yl)propyl)piperidin-4-yl)-1H-pyrazol-4-yl)pyrazine-2-carboxylate] | 8.37 | 59.49 | 58.14 | 77.25 | 89.93 |  | 
8 | COc1ccc(C(=O)N2CCC(C(=O)N3CCC(CN4CCC(CCN5CCC(n6cc(-c7cnc(N)c(C(=O)O[C@@H](C(=O)Nc8ccc(F)cc8)c8ccccc8)n7)cn6)CC5)CC4)CC3)CC2)cc1N1CCC(=O)NC1=O [TDH-511, (R)-2-((4-fluorophenyl)amino)-2-oxo-1-phenylethyl 3-amino-6-(1-(1-(2-(1-((1-(1-(3-(2,4-dioxotetrahydropyrimidin-1(2H)-yl)-4-methoxybenzoyl)piperidine-4-carbonyl)piperidin-4-yl)methyl)piperidin-4-yl)ethyl)piperidin-4-yl)-1H-pyrazol-4-yl)pyrazine-2-carboxylate] | 9.62 | 32.32 | 46.16 | 81.08 | 91.73 |  | 
9 | Nc1ncc(-c2cnn(C3CCN(CCOC4CCN(C(=O)c5ccc6c(c5)CN(C5CCC(=O)NC5=O)C6=O)CC4)CC3)c2)nc1C(=O)O[C@@H](C(=O)Nc1ccc(F)cc1)c1ccccc1 (stereo partly drawn) [TDH-549, (R)-2-((4-fluorophenyl)amino)-2-oxo-1-phenylethyl 3-amino-6-(1-(1-(2-((1-(2-(2,6-dioxopiperidin-3-yl)-1-oxoisoindoline-5-carbonyl)piperidin-4-yl)oxy)ethyl)piperidin-4-yl)-1H-pyrazol-4-yl)pyrazine-2-carboxylate] | 9.19 | 35.84 | 25.21 | 84.54 | 34.92 |  | 
10 | Nc1ncc(-c2cnn(C3CCN(CC4CCN(C(=O)C5CN(c6cccc7c6C(=O)N(C6CCC(=O)NC6=O)C7=O)C5)CC4)CC3)c2)nc1C(=O)O[C@@H](C(=O)Nc1ccc(F)cc1)c1ccccc1 (stereo partly drawn) [TDH-138, (R)-2-((4-fluorophenyl)amino)-2-oxo-1-phenylethyl 3-amino-6-(1-(1-((1-(1-(2-(2,6-dioxopiperidin-3-yl)-1,3-dioxoisoindolin-4-yl)azetidine-3-carbonyl)piperidin-4-yl)methyl)piperidin-4-yl)-1H-pyrazol-4-yl)pyrazine-2-carboxylate] | 8.38 |  |  | 40.46 | 25.69 | 70.53 | 60.57
11 | Nc1ncc(-c2cnn(C3CCN(CC4CCN(CC5CCN(C(=O)CNc6ccc7c(c6)C(=O)N(C6CCC(=O)NC6=O)C7=O)CC5)CC4)CC3)c2)nc1C(=O)O[C@@H](C(=O)Nc1ccc(F)cc1)c1ccccc1 (stereo partly drawn) [TDH-426, (R)-2-((4-fluorophenyl)amino)-2-oxo-1-phenylethyl 3-amino-6-(1-(1-((1-((1-((2-(2,6-dioxopiperidin-3-yl)-1,3-dioxoisoindolin-5-yl)glycyl)piperidin-4-yl)methyl)piperidin-4-yl)methyl)piperidin-4-yl)-1H-pyrazol-4-yl)pyrazine-2-carboxylate] | 8.92 | 55.42 |  | 18.62 | 57.41 |  | 
